Experimental data from US20080306096A1, “Quinazoline Derivatives, Process for Their Preparation and Their Use as Anti-Cancer Agents” (ASTRAZENECA AB, priority 2005, published 2008).

Biological target: T1, human recombinant, purified wild type His-B-Raf protein kinase (Homo sapiens, UniProt P15056)
T1 construct: His
Test: B-Raf In Vitro ELISA Assay
Assay type: biochemical
Settings: phosphorylation of MEK1; 2.5 nM B-Raf, 0.15 μM MEK1, 10 μM ATP; 1 hour preincubation at 25° C.
Experimental: B-Raf In Vitro ELISA Assay
Activity of human recombinant, purified wild type His-B-Raf protein kinase was determined in vitro using an enzyme-linked immunosorbent assay (ELISA) assay format, which measures phosphorylation of the B-Raf substrate, human recombinant, purified His-derived (detagged) MEK1. The reaction utilized 2.5 nM B-Raf, 0.15 μM MEK1 and 10 μM adenosine triphosphate (ATP) in 40 mM N-(2-hydroxyethyl)piperazine-N′-(2-ethanesulfonic acid hemisodium salt (HEPES), 5 mM 1,4-dithio-DL-threitol (DTT), 10 mM MgCl2, 1 mM ethylenediaminetetraacetic acid (EDTA) and 0.2 M NaCl (1×HEPES buffer), with or without compound at various concentrations, in a total reaction volume of 25 μl in 384 well plates. B-Raf and compound were preincubated in 1×HEPES buffer for 1 hour at 25° C. Reactions were initiated with addition of MEK1 and ATP in 1×HEPES buffer and incubated at 25° C. for 50 minutes and reactions stopped by addition of 10 μl 175 mM EDTA (final concentration 50 mM) in 1×HEPES buffer. 5 μl of the assay mix was then diluted 1:20 into 50 mM EDTA in 1×HEPES buffer, transferred to 384 well black high protein binding plates and incubated overnight at 4° C. Plates were washed in tris buffered saline containing 0.1% 5 Tween20 (TBST), blocked with 50 μl Superblock (Pierce) for 1 hour at 25° C., washed in TBST, incubated with 50 μl rabbit polyclonal anti-phospho-MEK antibody (Cell Signaling) diluted 1:1000 in TBS for 2 hours at 25° C., washed with TBST, incubated with 50 μl goat anti-rabbit horseradish peroxidase-linked antibody (Cell Signaling) diluted 1:2000 in TBS for 1 hour at 25° C. and washed with TBST. 50 μl of fluorogenic peroxidase substrate (Quantablu 10-Pierce) was added and following incubation for 45-60 minutes, 50 μl QuantabluSTOP (Pierce) was added. Blue fluorescent product was detected at excitation 325 and emission 420 using a TECAN Ultra plate reader. Data was graphed and IC50s calculated using Excel Fit (Microsoft).

T1 sequence (P15056 whole entry): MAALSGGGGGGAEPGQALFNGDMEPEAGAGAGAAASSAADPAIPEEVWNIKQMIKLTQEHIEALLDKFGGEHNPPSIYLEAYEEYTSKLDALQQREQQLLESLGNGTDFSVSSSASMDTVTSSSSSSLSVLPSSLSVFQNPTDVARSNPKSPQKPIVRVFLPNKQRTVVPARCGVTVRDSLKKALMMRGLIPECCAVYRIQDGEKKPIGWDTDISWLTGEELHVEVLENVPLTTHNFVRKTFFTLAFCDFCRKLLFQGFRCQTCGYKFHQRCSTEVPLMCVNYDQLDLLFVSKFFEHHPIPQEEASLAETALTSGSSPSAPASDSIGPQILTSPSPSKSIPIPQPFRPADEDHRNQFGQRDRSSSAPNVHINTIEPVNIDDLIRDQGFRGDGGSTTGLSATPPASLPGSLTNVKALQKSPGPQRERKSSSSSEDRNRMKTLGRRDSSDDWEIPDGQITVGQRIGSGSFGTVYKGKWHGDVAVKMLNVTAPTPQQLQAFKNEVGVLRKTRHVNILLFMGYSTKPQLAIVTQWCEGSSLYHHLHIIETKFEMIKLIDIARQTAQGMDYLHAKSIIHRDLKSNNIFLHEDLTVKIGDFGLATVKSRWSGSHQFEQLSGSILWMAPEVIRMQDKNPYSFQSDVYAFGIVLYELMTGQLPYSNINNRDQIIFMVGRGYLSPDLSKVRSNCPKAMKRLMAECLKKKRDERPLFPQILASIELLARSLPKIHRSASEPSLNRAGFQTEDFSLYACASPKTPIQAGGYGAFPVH

IC50 | Compound
1100 nM | COc1cc2c(Nc3cc(NC(=O)c4cccc(C(C)(C)C#N)c4)ccc3C)ncnc2cc1OCc1ccccc1 [Example 5, N-(3-{[7-(Benzyloxy)-6-methoxyquinazolin-4-yl]amino}-4-methylphenyl)-3-(1-cyano-1-methylethyl)benzamide]
193 nM | COc1cc2ncnc(Nc3cc(NC(=O)c4cccc(C5(C#N)CCC5)c4)ccc3C)c2cc1OC [Example 7, 3-(1-Cyanocyclobutyl)-N-{3-[(6,7-dimethoxyquinazolin-4-yl)amino]-4-methylphenyl}benzamide]
370 nM | COc1cc2ncnc(Nc3cc(NC(=O)c4cc(C(F)(F)F)ccc4F)ccc3C)c2cc1OC [Example 15, N-{3-[(6,7-Dimethoxyquinazolin-4-yl)amino]-4-methylphenyl}-2-fluoro-5-(trifluoromethyl)benzamide]
